Assay results reported in patent US20240082398A1, “METHODS OF PREPARING AND EXPANDING TYPE I INNATE LYMPHOID CELLS AND THERAPEUTIC USES THEREOF” (City of Hope, priority 2021, published 2024).
“Also recorded” adds a separate entry of the source.

What was measured:
[1] = tested on: mouse LSCs (Lin^−Sca-1^+c-Kit^+); experiment: LSCs and ILC1s in vitro co-culture assay (LSC apoptosis), mouse; format: cell-based; conditions: recombinant murine cytokine instead of ILC1s, indicated doses, 3-4 days
Protocol: A total of 2,000 LSCs from AML patients labeled with CTV were co-cultured with different numbers of human ILC1s supplemented with human IL-12 (10 ng/ml) and IL-15 (100 ng/ml). After 3 days of co-culture, cells were harvested and analyzed by flow cytometry. 7-AAD was used to identify dead cells. For mouse LSCs co-culture assay, 2,000 LSCs from Mll^PTD/WT/Flt3^ITD/ITD mice labeled with CTV were co-cultured with different numbers of mouse ILC1s supplemented with mouse IL-12 (10 ng/ml) and IL-15 (100 ng/ml). After 3 days of co-culture, cells were harvested and analyzed by flow cytometry. 7-AAD was used to identify the dead cells. For the co-culture of LSCs and ILC1s using the transwell co-culture system, 2,000 human or mouse LSCs were seeded in the lower chamber while different numbers of human or mouse ILC1s were seeded in the upper chamber. After 3 days, cells were harvested and analyzed by flow cytometry. 7-AAD was used to identify the dead cells. For co-culture assay with cytokines and antibodies, 2,000 human or mouse LSCs were co-cultured with different doses of human or mouse TNF-α, IFN-γ, anti-TNF-α (10 μg/ml) Ab, or anti-IFN-γ Ab (10 μg/ml). Three days after the co-culture, cells were harvested and analyzed by flow cytometry. 7-AAD was used to identify the dead cells.
For human LSC co-culture assays, LSCs from patients with AML were labeled with […] CTV and co-cultured in the presence of human IL-12 (10 ng/ml) and IL-15 (100 ng/ml) with various numbers of ILC1s isolated from peripheral blood of healthy donors or patients with AML. […] For all co-culture assays, cells were harvested after 3 days and analyzed using flow cytometry. […]
ILC1s were co-cultured with LSCs at a ratio of 1:1 or 1:2 for 6 h. […] Plates were then shaken at 300 rpm for 1 min, incubated for 60 min at room temperature, and then read on a luminometer (Promega, Glomax). Background luminescence was determined with 100 μl of culture medium without cells and subtracted before fold changes were calculated.

[2] = tested on: LS^−K^+ leukemia progenitor cells; experiment: Differentiation of sorted leukemia progenitor cells into myeloid blasts; format: cell-based, mouse; conditions: treated 5 days, among the groups
Protocol: The process of LSC differentiation into AML blasts includes transitions from LSCs to LS^−K^+ leukemia progenitor cells, and from LS^−K^+ leukemia progenitor cells to AML blasts. To investigate which part of the process was affected by ILC1 and IFN-γ, LS^−K^+ leukemia progenitor cells were sorted from Mll^PTD/WT/Flt3^ITD/ITD AML mice, then the LS^−K^+ leukemia progenitor cells were treated with WT ILC1, ILC1s, or recombinant IFN-γ for 5 days. […] Thus, ILC1s block LSC differentiation into AML blasts, likely via a process involving by IFN-γ, during the transition from LSCs into LS^−K^+ leukemia progenitor cells, upstream of progenitor cell differentiation into AML blasts (FIG. 9D).
LSCs transition into LS^−K^+ leukemia progenitor cells before becoming AML blasts.

[3] = tested on: mouse LSCs; experiment: RNA-seq of LSCs after ILC1 co-culture or IFN-γ treatment; format: cell-based; conditions: vs untreated LSCs
Protocol: For mouse ILC1 RNA-sequencing, mouse ILC1s were sorted from the liver of normal mice or mice with AML using BD FACSAria™ Fusion. […] Total RNA was isolated from ILC1s or LSCs using a miRNeasy mini kit (QIAGEN). PolyA RNA-seq was performed in the Integrative Genomics Core of City of Hope National Medical Center. SMART-Seq® Ultra Low Input RNA Kit for Sequencing-v4 (Takara Bio) was used for getting double-strand cDNA from each sample with 2 ng of input total RNA. The resulting cDNA was sheared using a Covaris LE220 sonicator. The sheared DNA was used for to prepare a sequencing library, using a KAPA HyperPrep Kit. The final libraries were quantified using the Qubit Assay Kit (Thermo Fisher Scientific) and Bioanalyzer (Agilent). Sequencing was performed using the single-read mode of 51 cycles of read1 and 7 cycles of index read with V4 reagents on a Hiseq 2500 system (Illumina). Real-time analysis (RTA) 2.2.38 software was used to process the image analysis and base calling.
2,000 mouse LSCs were co-cultured with 1,000 ILC1s or treated with 1 ng/ml IFN-γ for 3 days, and then the LSCs were sorted using BD FACSAria Fusion. Total RNA of LSCs were isolated using miRNeasy mini kit (QIAGEN). SMART-Seq® Ultra Low Input RNA Kit for Sequencing-v4 was used for generating amplified double strand cDNA from each sample with 2 ng of input total RNA according to the manufacturer's protocol. The resulting double-stranded cDNA sheared with Covaris LE220 with the setting of DNA fragment size of 200 bp peak. The sheared DNA was used for sequencing library preparation by using KAPA HyperPrep Kits. The final libraries were quantified with qubit and bioanalyzer. The sequencing was performed with the single read mode of 51 cycles of read1 and 7 cycles of index read with V4 reagents on Hiseq2500. Real-time analysis (RTA) 2.2.38 software was used to process the image analysis and base calling.
Prism software v.8 (GraphPad, CA, USA) was used to perform statistical analysis. Two group comparisons were performed with a two-tailed Student's t-test; multiple group comparisons were performed with a one-way ANOVA test with a multiple comparisons option. For Kaplan-Meier survival curve analysis, the comparisons were performed using a log-rank (Mantel-Cox) test. For continuous endpoints, Student's t test was used to compare two independent conditions, and one-way ANOVA models were used to compare three or more independent conditions. For repeated measures over time, linear mixed models were used to account for the variance and covariance structure. Mouse survival was estimated by the Kaplan-Meier method and compared by log-rank tests. All tests were two-sided. P values were adjusted for multiple comparisons by Holm's procedure. For RNA-seq analysis, sequencing reads were trimmed from sequencing adapters using Trimmomatic^74 and polyA tails using FASTPT^75, and then mapped back to the mouse genome (mm10) using STAR (v. 020201)^76. The gene-level count table was created by HTSeq (v.0.6.0)^77 and normalized by the TMM^78 method. General linear models based on negative binomial distributions (R package “EdgeR”) were used to compare gene expression levels between two specific cell types. […] Pathway and gene set enrichment analyses were performed using the GSEA^79,80 program, which runs the GSEAPreranked algorithm on a ranked list of genes. Data are presented as mean±SD. Prism software v.8 (GraphPad, CA, USA) and SAS v.9.4 (SAS Institute. NC, USA) were used to perform statistical analyses. The p-values are represented as: *<0.05, **<0.01, ***<0.001, and ****<0.0001

recombinant murine IFN-γ: animal-free recombinant murine IFN-γ cytokine
LSC apoptosis on treatment with recombinant cytokine [1]: We observed LSC apoptosis with IFN-γ
LSC apoptosis on treatment with recombinant cytokine ([1]; listed as IFN-γ): induces apoptosis of LSCs
LSC apoptosis on treatment with recombinant cytokine ([1]; listed as Recombinant murine IFN-γ): induced LSC apoptosis
percentage of Mac-1^+ and Gr-1^+ cells from LS^−K^+ leukemia progenitor cells [2]: do not affect the differentiation of leukemia progenitor cells into myeloid blasts
percentage of Mac-1^+ and Gr-1^+ cells from LS^−K^+ leukemia progenitor cells ([2]; listed as recombinant IFN-γ): no statistical difference; also recorded: remained constant
E2F targets, G2M checkpoints, MYC targets and mitotic spindle pathways in LSCs (GSEA) [3]: significant suppression; also recorded: significantly suppressing
JAK-STAT and PI3K-AKT signaling pathways in LSCs [3]: activation of the JAK-STAT and PI3K-AKT signaling pathways
apoptotic pathways in LSCs (GSEA) [3]: activated apoptotic pathways
expression of Akt3, Jak2, Stat1/2, Irf1/2/7/8/9 and Socs1 in LSCs [3]: increased expression
expression of genes associated with lymphoid differentiation (Gimap4, Gpb4, Irf8, Irf1) [3]: increased expression
expression of genes associated with myeloid differentiation (S100a8/S100a9, Chil3, Serpinb1a, Slc28a2) [3]: reduced their expression
